Data published in US20250122191A1, “COMPOUNDS AS BCL-2 INHIBITORS” (Fochon Biosciences, Ltd, priority 2021, published 2025).

tested on: Toledo cells; experiment: Cell proliferation assay (MTS), Toledo cells; format: cell-based; conditions: Homo sapiens, 72 h
Method: MTS testing kit was purchased from Promega (Madison, WI, USA). The RPMI-1640, Fetal bovine serum and Penicillin-Streptomycin were purchased from BI (Biological Industries, Beit Haemek, Israel). Dimethyl sulfoxide (DMSO) was purchased from Sigma (St. Louis., MO, USA). Toledo (ATCC catalog #: CRL-2631) cells were cultured in RPMI-1640 supplemented with Penicillin-Streptomycin and 10% FBS.
To investigate whether a compound is able to inhibit the activity of BCL-2 in cells, a mechanism-based assay using Toledo lines was developed. In this assay, the inhibition of BCL-2 was reflected by the inhibition of cell proliferation of Toledo cells. Cells were plated into 96-well plates at the optimized cell density of 30000 cells/well. Plates were incubated at 37° C., with 5% CO2 for 4 h. Compounds were serially diluted and added to the plates with the final concentrations of 10000, 3333.3, 1111.1, 370.4, 123.5, 41.2, 13.7, 4.6 and 1.5 nM. Plates were incubated at 37° C., with 5% CO2 for 72 h. 20 μl MTS was added into each well and the plates were incubated at 37° C., with 5% CO2 for exactly 2 h. The absorbance was measured by a microplate reader at 490 nm. IC50 was calculated using GraphPad Prism 5.0 software.

Compound	IC50
CC(C)c1ccccc1[C@@H]1CN(Cc2ccc(F)c(F)c2)CCN1C1CC2(CCN(c3ccc(C(=O)NS(=O)(=O)c4cnc(NC[C@H]5CC[C@](C)(O)CC5)c([N+](=O)[O-])c4)c(Oc4cnc5[nH]cc(F)c5c4)c3)CC2)C1 [Example 72, 4-(2-((R)-4-(3,4-difluorobenzyl)-2-(2-isopropylphenyl)piperazin-1-yl)-7-azaspiro[3.5]nonan-7-yl)-2-((3-fluoro-1H-pyrrolo[2,3-b]pyridin-5-yl)oxy)-N-((6-((((1r,4r)-4-hydroxy-4-methylcyclohexyl)methyl)amino)-5-nitropyridin-3-yl)sulfonyl)benzamide]	1 nM
CCOc1nc2[nH]cc(F)c2cc1Oc1cc(N2CCC3(CC2)CC(N2CCN(Cc4ccc(OC)cn4)C[C@H]2c2ccccc2C(C)C)C3)ccc1C(=O)NS(=O)(=O)c1cnc(NC[C@H]2CC[C@](C)(O)CC2)c([N+](=O)[O-])c1 [Example 121, 2-((6-ethoxy-3-fluoro-1H-pyrrolo[2,3-b]pyridin-5-yl)oxy)-N-((6-((((1r,4r)-4-hydroxy-4-methylcyclohexyl)methyl)amino)-5-nitropyridin-3-yl)sulfonyl)-4-(2-((R)-2-(2-isopropylphenyl)-4-((5-methoxypyridin-2-yl)methyl)piperazin-1-yl)-7-azaspiro[3.5]nonan-7-yl)benzamide]	1 nM
CCOc1nc2[nH]cc(F)c2cc1Oc1cc(N2CCC3(CC2)CC(N2CCN(C4CC4)C[C@H]2c2ccccc2C(C)C)C3)ccc1C(=O)NS(=O)(=O)c1cnc(NC[C@H]2CC[C@](C)(O)CC2)c([N+](=O)[O-])c1 [Example 144, 4-(2-((R)-4-cyclopropyl-2-(2-isopropylphenyl)piperazin-1-yl)-7-azaspiro[3.5]nonan-7-yl)-2-((6-ethoxy-3-fluoro-1H-pyrrolo[2,3-b]pyridin-5-yl)oxy)-N-((6-((((1r,4r)-4-hydroxy-4-methylcyclohexyl)methyl)amino)-5-nitropyridin-3-yl)sulfonyl)benzamide]	1 nM
COc1nc2[nH]cc(F)c2cc1Oc1cc(N2CCC3(CC2)CC(N2CCN(C(C)=O)C[C@H]2c2ccccc2C(C)C)C3)ccc1C(=O)NS(=O)(=O)c1cnc(NC[C@H]2CC[C@](C)(O)CC2)c([N+](=O)[O-])c1 [Example 146, 4-(2-((R)-4-acetyl-2-(2-isopropylphenyl)piperazin-1-yl)-7-azaspiro[3.5]nonan-7-yl)-2-((3-fluoro-6-methoxy-1H-pyrrolo[2,3-b]pyridin-5-yl)oxy)-N-((6-((((1r,4r)-4-hydroxy-4-methylcyclohexyl)methyl)amino)-5-nitropyridin-3-yl)sulfonyl)benzamide]	1 nM
CCOc1nc2[nH]cc(F)c2cc1Oc1cc(N2CCC3(CC2)CC(N2CCN(C(C)=O)C[C@H]2c2ccccc2C(C)C)C3)ccc1C(=O)NS(=O)(=O)c1cnc(NC[C@H]2CC[C@](C)(O)CC2)c([N+](=O)[O-])c1 [Example 147, 4-(2-((R)-4-acetyl-2-(2-isopropylphenyl)piperazin-1-yl)-7-azaspiro[3.5]nonan-7-yl)-2-((6-ethoxy-3-fluoro-1H-pyrrolo[2,3-b]pyridin-5-yl)oxy)-N-((6 ((((1r,4r)-4-hydroxy-4-methylcyclohexyl)methyl)amino)-5-nitropyridin-3-yl)sulfonyl)benzamide]	1 nM
CC(=O)N1CCN(C2CC3(CCN(c4ccc(C(=O)NS(=O)(=O)c5cnc(NC[C@H]6CC[C@](C)(O)CC6)c([N+](=O)[O-])c5)c(Oc5cnc6[nH]cc(F)c6c5)c4)CC3)C2)[C@H](c2ccccc2C(C)C)C1 [Example 148, 4-(2-((R)-4-acetyl-2-(2-isopropylphenyl)piperazin-1-yl)-7-azaspiro[3.5]nonan-7-yl)-2-((3-fluoro-1H-pyrrolo[2,3-b]pyridin-5-yl)oxy)-N-((6-((((1r,4r)-4-hydroxy-4-methylcyclohexyl)methyl)amino)-5-nitropyridin-3-yl)sulfonyl)benzamide]	1 nM
CCOc1nc2[nH]cc(F)c2cc1Oc1cc(N2CCC3(CC2)CC(N2CCN(Cc4ccncc4)C[C@H]2c2ccccc2C(C)C)C3)ccc1C(=O)NS(=O)(=O)c1cnc(NC[C@H]2CC[C@](C)(O)CC2)c([N+](=O)[O-])c1 [Example 238, 2-((6-ethoxy-3-fluoro-1H-pyrrolo[2,3-b]pyridin-5-yl)oxy)-N-((6-((((1r,4r)-4-hydroxy-4-methylcyclohexyl)methyl)amino)-5-nitropyridin-3-yl)sulfonyl)-4-(2-((R)-2-(2-isopropylphenyl)-4-(pyridin-4-ylmethyl)piperazin-1-yl)-7-azaspiro[3.5]nonan-7-yl)benzamide]	1 nM
COc1nc2[nH]cc(F)c2cc1Oc1cc(N2CCC3(CC2)CC(N2CCN(Cc4ccc5c(c4)OCCO5)C[C@H]2c2ccccc2C(C)C)C3)ccc1C(=O)NS(=O)(=O)c1cnc(NC[C@H]2CC[C@](C)(O)CC2)c([N+](=O)[O-])c1 [Example 321, 4-(2-((R)-4-((2,3-dihydrobenzo[b][1,4]dioxin-6-yl)methyl)-2-(2-isopropylphenyl)piperazin-1-yl)-7-azaspiro[3.5]nonan-7-yl)-2-((3-fluoro-6-methoxy-1H-pyrrolo[2,3-b]pyridin-5-yl)oxy)-N-((6-((((1r,4r)-4-hydroxy-4-methylcyclohexyl)methyl)amino)-5-nitropyridin-3-yl)sulfonyl)benzamide]	1 nM
CC(C)c1ccccc1[C@@H]1CN(Cc2ccc3c(c2)OCCO3)CCN1C1CC2(CCN(c3ccc(C(=O)NS(=O)(=O)c4cnc(NC[C@H]5CC[C@](C)(O)CC5)c([N+](=O)[O-])c4)c(Oc4cnc5[nH]cc(F)c5c4)c3)CC2)C1 [Example 322, 4-(2-((R)-4-((2,3-dihydrobenzo[b][1,4]dioxin-6-yl)methyl)-2-(2-isopropylphenyl)piperazin-1-yl)-7-azaspiro[3.5]nonan-7-yl)-2-((3-fluoro-1H-pyrrolo[2,3-b]pyridin-5-yl)oxy)-N-((6-((((1r,4r)-4-hydroxy-4-methylcyclohexyl)methyl)amino)-5-nitropyridin-3-yl)sulfonyl)benzamide]	1 nM
CC(C)c1ccccc1[C@@H]1CN(Cc2ccc(S(C)(=N)=O)cc2)CCN1C1CC2(CCN(c3ccc(C(=O)NS(=O)(=O)c4cnc(NC[C@H]5CC[C@](C)(O)CC5)c([N+](=O)[O-])c4)c(Oc4cnc5[nH]cc(F)c5c4)c3)CC2)C1 (stereo partly drawn) [Example 337, 2-((3-fluoro-1H-pyrrolo[2,3-b]pyridin-5-yl)oxy)-N-((6-((((1r,4r)-4-hydroxy-4-methylcyclohexyl)methyl)amino)-5-nitropyridin-3-yl)sulfonyl)-4-(2-((2R)-2-(2-isopropylphenyl)-4-(4-(S-methylsulfonimidoyl)benzyl)piperazin-1-yl)-7-azaspiro[3.5]nonan-7-yl)benzamide]	1 nM
CC(C)c1ccccc1[C@@H]1CN(Cc2ccc(OC(F)F)cc2)CCN1C1CC2(CCN(c3ccc(C(=O)NS(=O)(=O)c4cnc(NC[C@H]5CC[C@](C)(O)CC5)c([N+](=O)[O-])c4)c(Oc4cnc5[nH]cc(F)c5c4)c3)CC2)C1 [Example 343, 4-(2-((R)-4-(4-(difluoromethoxy)benzyl)-2-(2-isopropylphenyl)piperazin-1-yl)-7-azaspiro[3.5]nonan-7-yl)-2-((3-fluoro-1H-pyrrolo[2,3-b]pyridin-5-yl)oxy)-N-((6-((((1r,4r)-4-hydroxy-4-methylcyclohexyl)methyl)amino)-5-nitropyridin-3-yl)sulfonyl)benzamide]	1 nM

tested on: RS4;11-BCL-2 G101V cells; experiment: Cell proliferation assay (MTS), RS4;11-BCL-2 G101V engineered cells; format: cell-based; conditions: Homo sapiens, 120 h, read-out: RS4, 11 BCL2-G101V IC50
Excerpt: MTS testing kit was purchased from Promega (Madison, WI, USA). The RPMI-1640, Fetal bovine serum and Penicillin-Streptomycin were purchased from BI (Biological Industries, Beit Haemek, Israel). Puromycin was purchased from Beyotime (shanghai, China). Dimethyl sulfoxide (DMSO) was purchased from Sigma (St. Louis., MO, USA). RS4;11-BCL-2 G101V (Cobioer Lot. #: CBD2021063013P4), RS4;11-BCL-2 D103E (Cobioer Lot. #: CBD2021063013P4), RS4;11-BCL-2 D103Y (Cobioer Lot. #: CBD2022012101P4) and RS4;11-BCL-2 F104L (Cobioer Lot. #: CBD2021063014P4) cells were cultured in RPMI1640 supplemented with 1 ug/mL puromycin, 100 U/mL Penicillin-Streptomycin and 10% FBS.
To investigate whether a compound is able to inhibit the activity of BCL-2 mutation in cells, a mechanism-based assay using engineered cell lines stably overexpressing BCL-2 mutation (RS4;11-BCL-2 G101V, RS4;11-BCL-2 D103E, RS4;11-BCL-2 D103Y, and RS4;11-BCL-2 F104L) was developed. In this assay, the inhibition of BCL-2 mutation was reflected by the inhibition of cell proliferation of engineered RS4;11 cells. Cells were plated into 96-well plates at optimized cell density (RS4;11-BCL-2 G101V: 5000 cells/well; RS4;11-BCL-2 D103E: 7500 cells/well; RS4;11-BCL-2 D103Y: 7500 cells/well; RS4;11-BCL-2 F104L: 5000 cells/well). Plates were incubated at 37° C., with 5% CO2 for 4 h (RS4;11-BCL-2 G101V, RS4;11-BCL-2 F104L) and 24 h (RS4;11-BCL-2 D103E, RS4;11-BCL-2 D103Y), respectively. Compounds were serially diluted and added to the plates with the final concentrations of 10000, 3333.3, 1111.1, 370.4, 123.5, 41.2, 13.7, 4.6 and 1.5 nM. Plates were incubated at 37° C., with 5% CO2 for 120 h (RS4; 11-BCL-2 G101V, RS4; 11-BCL-2 F104L) and 72 h (RS4;11-BCL-2 D103E, RS4;11-BCL-2 D103Y), respectively. 20 μl MTS was added into each well and the plates were incubated at 37° C., with 5% CO2 exactly for 2 h. The absorbance was measured by a microplate reader at 490 nm. IC50 values were calculated using GraphPad Prism 8.0 software.

IC50	Compound
1 nM	CC(C)c1ccccc1[C@@H]1CN(Cc2ccc(F)c(F)c2)CCN1C1CC2(CCN(c3ccc(C(=O)NS(=O)(=O)c4cnc(NC[C@H]5CC[C@](C)(O)CC5)c([N+](=O)[O-])c4)c(Oc4cnc5[nH]cc(F)c5c4)c3)CC2)C1 [Example 72, 4-(2-((R)-4-(3,4-difluorobenzyl)-2-(2-isopropylphenyl)piperazin-1-yl)-7-azaspiro[3.5]nonan-7-yl)-2-((3-fluoro-1H-pyrrolo[2,3-b]pyridin-5-yl)oxy)-N-((6-((((1r,4r)-4-hydroxy-4-methylcyclohexyl)methyl)amino)-5-nitropyridin-3-yl)sulfonyl)benzamide]
